“Also recorded” adds a separate entry of the source. Read-outs that look alike come from different tables or passages of the source.
Legend:
[1] = system: 24-hydroxylase (24Ohase) gene promoter in ROS 17/2.8 (bone) cells; test: In vitro transcription assay (24-hydroxylase promoter luciferase reporter); type: cell-based; conditions: for EC50: 24-hydroxylase (CYP-24) promoter driving luciferase reporter, read-out: EC50, transcriptional activity in bone cells; for transcriptional activity in bone cells (in words): FIG. 3
Description: Transcription activity was measured in ROS 17/2.8 (bone) cells that were stably transfected with a 24-hydroxylase (24Ohase) gene promoter upstream of a luciferase reporter gene (Arbour et al., 1998). Cells were given a range of doses. Sixteen hours after dosing the cells were harvested and luciferase activities were measured using a luminometer.
RLU=relative luciferase units.

[2] = system: Human promyelocytic leukemia (HL60) cells; test: HL-60 differentiation (nitro blue tetrazolium reduction); type: cell-based; conditions: for EC50: HL-60 cells into monocytes, read-out: EC50, HL-60 cell differentiation
Description: The study drugs were dissolved in ethanol and the concentrations determined using UV spectrophotometry. Serial dilutions were prepared so that a range of drug concentrations could be tested without changing the final concentration of ethanol (≦0.2%) present in the cell cultures.
Human promyelocytic leukemia (HL60) cells were grown in RPMI-1640 medium containing 10% fetal bovine serum. The cells were incubated at 37° C. in the presence of 5% CO2.
HL60 cells were plated at 1.2×10^5 cells/ml. Eighteen hours after plating, cells in duplicate were treated with drug. Four days later, the cells were harvested and a nitro blue tetrazolium reduction assay was performed (Collins et al., 1979; J. Exp. Med. 149:969-974). The percentage of differentiated cells was determined by counting a total of 200 cells and recording the number that contained intracellular black-blue formazan deposits. Verification of differentiation to monocytic cells was determined by measuring phagocytic activity (data not shown).

[3] = target: T1, full-length recombinant rat vitamin D receptor (Rattus norvegicus, UniProt P13053); test: Vitamin D receptor binding (competition with [3H]-1,25(OH)2D3)
T1 construct: Full-length recombinant rat receptor was expressed in E. coli; histidine tag (C); made in house; host or cells: E. coli BL21 (DE3) Codon Plus RTL
T1 sequence (P13053 1-423): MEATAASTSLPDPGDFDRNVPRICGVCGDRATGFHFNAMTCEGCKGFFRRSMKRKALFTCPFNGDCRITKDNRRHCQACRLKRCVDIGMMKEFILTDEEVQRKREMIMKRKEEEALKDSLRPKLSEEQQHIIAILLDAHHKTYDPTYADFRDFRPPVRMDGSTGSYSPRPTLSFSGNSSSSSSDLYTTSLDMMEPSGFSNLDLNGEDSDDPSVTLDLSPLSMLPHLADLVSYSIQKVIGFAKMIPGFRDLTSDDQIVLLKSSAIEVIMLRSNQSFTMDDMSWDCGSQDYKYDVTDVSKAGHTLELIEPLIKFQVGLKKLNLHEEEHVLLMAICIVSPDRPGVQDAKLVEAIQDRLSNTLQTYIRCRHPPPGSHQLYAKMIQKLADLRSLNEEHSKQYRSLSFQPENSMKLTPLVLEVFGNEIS
Description: Full-length recombinant rat receptor was expressed in E. coli BL21 (DE3) Codon Plus RTL cells and purified to homogeneity using two different column chromatography systems. The first system was a nickel affinity resin that utilizes the C-terminal histidine tag on this protein. The protein that was eluted from this resin was further purified using ion exchange chromatography (S-Sepharose Fast Flow). Aliquots of the purified protein were quick frozen in liquid nitrogen and stored at −80° C. until use. For use in binding assays, the protein was diluted in TEDK50 (50 mM Tris, 1.5 mM EDTA, pH7.4, 5 mM DTT, 150 mM KCl) with 0.1% Chaps detergent. The receptor protein and ligand concentration were optimized such that no more than 20% of the added radiolabeled ligand was bound to the receptor.
Radiolabeled and unlabeled ligands were added to 100 mcl of the diluted protein at a final ethanol concentration of ≦10%, mixed and incubated overnight on ice to reach binding equilibrium. The following day, 100 mcl of hydroxylapatite slurry (50%) was added to each tube and mixed at 10-minute intervals for 30 minutes. The hydroxylapaptite was collected by centrifugation and then washed three times with Tris-EDTA buffer (50 mM Tris, 1.5 mM EDTA, pH 7.4) containing 0.5% Titron X-100. After the final wash, the pellets were transferred to scintillation vials containing 4 ml of Biosafe II scintillation cocktail, mixed and placed in a scintillation counter. Total binding was determined from the tubes containing only radiolabeled ligand.

| Compound | EC50 [1] [nM] | EC50 [2] [nM] | transcriptional activity in bone cells (in words) [1] | transcription of the 24-hydroxylase gene, times less potent than 1,25-(OH)2D3 ([1]; relative to 1,25-(OH)2D3) [times] | gene transactivation, lower potency than the native hormone ([1]; relative to the native hormone) [fold] | Ki ([3]; full-length recombinant rat vitamin D receptor, read-out: Ki, competition with [3H]-1,25(OH)2D3 for binding to VDR) [nM] | VDR affinity, times less potent than 1,25-(OH)2D3 ([3]; relative to 1,25-(OH)2D3) [times] | EC50 ([2]; Homo sapiens) [nM] | HL-60 cell differentiation, times less potent than the natural hormone ([2]; relative to the natural hormone) [times] | VDR binding activity (in words) ([3]; FIG. 1) | HL-60 cell differentiation activity (in words) ([2]; FIG. 2) |
| --- | --- | --- | --- | --- | --- | --- | --- | --- | --- | --- | --- |
| C=C1/C(=C\C=C2/CCC[C@]3(C)[C@@H]([C@H](C)CCCC(C)(C)O)CC[C@@H]23)C[C@@H](O)C[C@@H]1O [1α,25-dihydroxyvitamin D3, reference compound] | 0.2 | 2 | – | – | – | – | – | – | – | – | – |
| C[C@H](CCCC(C)(C)O)C1CCC2/C(=C/C=C3/C[C@@H]4CCC=C4[C@H](O)C3)CCC[C@@]21C (stereo partly drawn) [DO-REVB, 3,2-cyclopentene-1α-25-dihydroxy-19-nor-vitamin D3] | 10 | – | weak transcriptional activity | ~20 | 2 | 2 | ~20 | 30 | ~10 | – | – |
| C[C@H](CCCC(C)(C)O)C1CCC2/C(=C/C=C3\C[C@@H]4CCC=C4[C@H](O)C3)CCC[C@@]21C (stereo partly drawn) [DO-REVA, 1,2-cyclopentene-25-hydroxy-19-nor-vitamin D3] | > 1000 | – | weak transcriptional activity; also recorded: measurable transcription activity at the higher concentrations tested; also recorded: measurable transcriptional activity at the higher concentrations tested | – | – | – | – | > 1000 | – | little to no binding affinity; also recorded: little to no receptor binding activity | little to no ability to induce differentiation; also recorded: little to no cellular differentiation activity |

Source: US8217023B2, “19-nor-vitamin D analogs with 1,2- or 3,2-cyclopentene ring” (Wisconsin Alumni Research Foundation, priority 2009, dated 2012)
